What was measured:
[1] = cited from earlier work
[2] = Stability of the phantom solutions at +2-8° C. in the presence of additives (residual absorbance); format: physicochemical
Procedure: (§1) Stability was measured as reduction in the absorbance at the maximum wavelength of the dye acquired using a UV/VIS spectrophotometer, denoting reduction of the dye monomer content in solution. All the results were then reported as residual percentage vs the baseline (T=0), wherein at time=0 the percentage is 100%. A decrease in absorbance is associated with the reduction of the concentration of the dye in the formulation buffer, indicating low stability and degradation of the main chromophore species.
The effect of the presence of an additive on the stability of the formulations of the invention has been also investigated.
The preparation of the above buffers is described below:
50 mM HEPES (pH 7.4)+0.04% Tween 20: to prepare 100 mL of buffering solution, 1.19 g of HEPES were dissolved in 80 mL of water; 40 μL of Tween 20 were added and the pH was adjusted to 7.4 with 0.1 M HCl. The buffering solution was then brought to 100 mL volume with water and filtered on 0.22 μm membrane in sterile conditions.
50 mM HEPES (PH 7.4)+0.02% Sodium Azide: to prepare 100 mL of buffering solution, 1.19 g of HEPES and 20 mg of Sodium Azide were dissolved in 80 mL of water and the pH was adjusted to 7.4 with 0.1 M HCl. The buffering solution was then brought to 100 mL volume with water and filtered on 0.22 μm membrane in sterile conditions.
10 mM HEPES (PH 7.0)+10% EtOH: to prepare 100 mL of buffering solution, 0.24 g of HEPES were dissolved in 80 mL of water and the pH was adjusted to 7.0 with 0.1 M HCl.
Then, 10 mL of 100% Ethanol were added. The buffering solution was then brought to 100 mL volume with water and filtered on 0.22 μm membrane in sterile conditions.
Analogous solutions were prepared with the same procedure for MOPS, BES and TRICINE buffers.

[3] = Stability of the phantom solutions at +2-8° C. (residual absorbance, UV/VIS); format: physicochemical; conditions: +2-8° C.
Procedure: Several stability studies were performed to evaluate the effect of different buffers, additives such as excipients or preservatives, and storage conditions on the dye formulation. In particular the stability of the formulations after storage at +2-8° C. in a refrigerator was firstly investigated.
as §1
In the Tables below the residual absorbance of different dyes, i.e. […] and S0456, in some representative organic buffering solutions is reported after storage of the formulations at +2-8° C.

[4] = Stability of the phantom solutions at 25° C. (residual absorbance); format: physicochemical; conditions: storage at 25° C. in dark
Procedure: as §1
The stability of the formulations under stressed conditions was also investigated.

[5] = Stability of the phantom solutions at +2-8° C. during long-term storage (residual absorbance); format: physicochemical; conditions: 3 μM dye in HEPES 50 mM, pH 7.4, +2-8° C. protected from light
Procedure: Stability was measured as reduction in the absorbance at the maximum wavelength of the dye acquired using a UV/VIS spectrophotometer, denoting reduction of the dye monomer content in solution. […] A decrease in absorbance is associated with the reduction of the concentration of the dye in the formulation buffer, indicating low stability and degradation of the main chromophore species. The stability of the formulations under long-term storage conditions was also investigated. In particular, samples of 3 μM IRDye […] and 3 μM IRDye 800BK dissolved in HEPES buffer were stored refrigerated at +2-8° C. protected from light exposure for at least 6 months. For the long-term stability study at 2-8° C., samples of.

O=S(=O)(O)CCN(CCO)CCO [BES, 2-[bis(2-hydroxyethyl)amino]ethanesulfonic acid]
pKa (20° C.) [1]: 7.2

CC1(C)C(=CC=C2CCCC(C=CC3=[N+](CCCCCC(=O)[O-])c4ccc(S(=O)(=O)[O-])cc4C3(C)C)=C2Oc2ccc(S(=O)(=O)[O-])cc2)N(CCCCS(=O)(=O)[O-])c2ccc(S(=O)(=O)[O-])cc21.[Na+].[Na+].[Na+].[Na+] [IRDye 800CW]
Residual absorbance percentage ([2]; 3 μM dye in HEPES (50 mM, pH 7.4) +0.02% sodium azide, +2-8° C., 1 week): 96.9%
Residual absorbance percentage ([2]; 3 μM dye in HEPES (50 mM, pH 7.4) +0.02% sodium azide, +2-8° C., 2 weeks): 92.4%
Residual absorbance percentage ([2]; 3 μM dye in HEPES (50 mM, pH 7.4) +0.02% sodium azide, +2-8° C., 4 weeks): 89.1%
Residual absorbance percentage ([2]; 3 μM dye in HEPES (50 mM, pH 7.4) +0.04% Tween 20, +2-8° C., 1 week): 100.5%
Residual absorbance percentage ([2]; 3 μM dye in HEPES (50 mM, pH 7.4) +0.04% Tween 20, +2-8° C., 2 weeks): 95.8%
Residual absorbance percentage ([2]; 3 μM dye in HEPES (50 mM, pH 7.4) +0.04% Tween 20, +2-8° C., 4 weeks): 92.4%
Residual absorbance percentage ([2]; 3 μM dye in TRICINE (50 mM, pH 8.0) +0.02% sodium azide, +2-8° C., 1 week): 97.7%
Residual absorbance percentage ([2]; 3 μM dye in TRICINE (50 mM, pH 8.0) +0.02% sodium azide, +2-8° C., 2 weeks): 93.0%
Residual absorbance percentage ([2]; 3 μM dye in TRICINE (50 mM, pH 8.0) +0.02% sodium azide, +2-8° C., 4 weeks): 89.8%
Residual absorbance percentage ([2]; 3 μM dye in TRICINE (50 mM, pH 8.0) +0.04% Tween 20, +2-8° C., 1 week): 97.7%
Residual absorbance percentage ([2]; 3 μM dye in TRICINE (50 mM, pH 8.0) +0.04% Tween 20, +2-8° C., 2 weeks): 93.0%
Residual absorbance percentage ([2]; 3 μM dye in TRICINE (50 mM, pH 8.0) +0.04% Tween 20, +2-8° C., 4 weeks): 89.8%
Residual absorbance percentage ([3]; 3 μM dye in HEPES (50 mM, pH 7.4), 1 week (Table II)): 100.9%
Residual absorbance percentage ([3]; 3 μM dye in HEPES (50 mM, pH 7.4), 2 weeks (Table II)): 100.3%
Residual absorbance percentage ([3]; 3 μM dye in HEPES (50 mM, pH 7.4), 4 weeks (Table II)): 99.3%
Residual absorbance percentage ([3]; 3 μM dye in MES (50 mM, pH 6.2), 1 week): 99.4%
Residual absorbance percentage ([3]; 3 μM dye in MES (50 mM, pH 6.2), 2 weeks): 96.7%
Residual absorbance percentage ([3]; 3 μM dye in MES (50 mM, pH 6.2), 4 weeks): 93.2%
Residual absorbance percentage ([3]; 3 μM dye in MOPS (50 mM, pH 7.0), 1 week (Table II)): 99.3%
Residual absorbance percentage ([3]; 3 μM dye in MOPS (50 mM, pH 7.0), 2 weeks (Table II)): 98.0%
Residual absorbance percentage ([3]; 3 μM dye in MOPS (50 mM, pH 7.0), 4 weeks (Table II)): 95.2%
Residual absorbance percentage ([3]; 3 μM dye in PBS (50 mM, pH 7.4), 1 week): 100%
Residual absorbance percentage ([3]; 3 μM dye in PBS (50 mM, pH 7.4), 2 weeks): 92.9%
Residual absorbance percentage ([3]; 3 μM dye in PBS (50 mM, pH 7.4), 4 weeks): 79.1%
Residual absorbance percentage ([3]; 3 μM dye in PBS (50 mM, pH 7.4), 4 weeks, listed as IRDye 8000W): lower than 80%
Residual absorbance percentage ([3]; 3 μM dye in TRICINE (50 mM, pH 8.0), 1 week (Table II)): 100.5%
Residual absorbance percentage ([3]; 3 μM dye in TRICINE (50 mM, pH 8.0), 2 weeks (Table II)): 99.9%
Residual absorbance percentage ([3]; 3 μM dye in TRICINE (50 mM, pH 8.0), 4 weeks (Table II)): 99.3%
Residual absorbance percentage ([4]; 3 μM dye in HEPES (50 mM), 1 week): 100.9%
Residual absorbance percentage ([4]; 3 μM dye in HEPES (50 mM), 2 weeks): 98.4%
Residual absorbance percentage ([4]; 3 μM dye in MOPS (50 mM), 1 week): 99.7%
Residual absorbance percentage ([4]; 3 μM dye in MOPS (50 mM), 2 weeks): 97.3%
Residual absorbance percentage ([5]; 1 month): 99.3%
Residual absorbance percentage ([5]; 3 months): 97.7%
Residual absorbance percentage ([5]; 6 months): 96.2%

CC1(C)C(/C=C/C2=C(Cl)C(=C/C=C3/N(CCCCS(=O)(=O)[O-])c4ccc(S(=O)(=O)[O-])cc4C3(C)C)/CCC2)=[N+](CCCCS(=O)(=O)[O-])c2ccc(S(=O)(=O)[O-])cc21.[Na+].[Na+].[Na+] [S0456]
Residual absorbance percentage ([3]; 3 μM dye in HEPES (50 mM, pH 7.4), 1 week (Table III)): 99.0%
Residual absorbance percentage ([3]; 3 μM dye in HEPES (50 mM, pH 7.4), 2 weeks (Table III)): 98.5%
Residual absorbance percentage ([3]; 3 μM dye in HEPES (50 mM, pH 7.4), 4 weeks (Table III)): 96.9%
Residual absorbance percentage ([3]; 3 μM dye in MOPS (50 mM, pH 7.0), 1 week (Table III)): 98.8%
Residual absorbance percentage ([3]; 3 μM dye in MOPS (50 mM, pH 7.0), 2 weeks (Table III)): 98.5%
Residual absorbance percentage ([3]; 3 μM dye in MOPS (50 mM, pH 7.0), 4 weeks (Table III)): 96.1%
Residual absorbance percentage ([3]; 3 μM dye in TRICINE (50 mM, pH 8.0), 1 week (Table III)): 99.7%
Residual absorbance percentage ([3]; 3 μM dye in TRICINE (50 mM, pH 8.0), 2 weeks (Table III)): 98.7%
Residual absorbance percentage ([3]; 3 μM dye in TRICINE (50 mM, pH 8.0), 4 weeks (Table III)): 97.9%

Reference: US20240368406A1, “STABLE LIQUID PHANTOM FOR NEAR-INFRARED FLUORESCENCE VERIFICATION” (SURGVISION GMBH, priority 2021, published 2024)
